Results on three molecules are retold here after PMC12040184, “Zebrafish Polymerase Theta and human Polymerase Theta: Orthologues with homologous function” (PLOS One, 2025).

In one series the target is T1, hPol θ PD (Homo sapiens, UniProt O75417).
T1 construct: gene POLQ; pSUMO3 (POLQM1) vector, 6xHis-SUMO tag cut off; E. coli; ~90 kDa
T1 sequence (O75417 1791-2590): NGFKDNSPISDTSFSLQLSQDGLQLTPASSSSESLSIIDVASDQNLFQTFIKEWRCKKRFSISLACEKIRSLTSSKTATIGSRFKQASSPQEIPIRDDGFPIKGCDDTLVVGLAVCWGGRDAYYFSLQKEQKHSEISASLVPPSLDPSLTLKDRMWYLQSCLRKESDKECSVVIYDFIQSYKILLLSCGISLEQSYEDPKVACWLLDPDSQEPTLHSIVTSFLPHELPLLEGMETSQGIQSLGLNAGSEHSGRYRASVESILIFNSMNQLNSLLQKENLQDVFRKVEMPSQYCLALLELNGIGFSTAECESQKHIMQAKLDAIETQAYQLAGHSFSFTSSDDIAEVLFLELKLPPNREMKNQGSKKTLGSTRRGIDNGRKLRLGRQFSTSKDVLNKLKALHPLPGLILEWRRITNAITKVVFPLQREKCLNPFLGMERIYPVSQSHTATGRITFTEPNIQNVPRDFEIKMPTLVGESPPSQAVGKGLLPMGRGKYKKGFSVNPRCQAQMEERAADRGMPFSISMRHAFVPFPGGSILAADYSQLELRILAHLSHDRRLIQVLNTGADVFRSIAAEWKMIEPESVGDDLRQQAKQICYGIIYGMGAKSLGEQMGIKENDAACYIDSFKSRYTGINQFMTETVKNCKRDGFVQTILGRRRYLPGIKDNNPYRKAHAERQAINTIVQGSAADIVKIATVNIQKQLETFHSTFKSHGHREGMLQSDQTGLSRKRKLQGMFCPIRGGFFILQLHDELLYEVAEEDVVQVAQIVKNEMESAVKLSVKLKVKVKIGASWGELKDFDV
Description: primer extension, denaturing gel. The format is biochemical.

Series [1] addresses T2, zPol theta PD (DNA polymerase theta polymerase domain) (zebrafish, UniProt F1Q4P4 1832-2576).
T2 sequence: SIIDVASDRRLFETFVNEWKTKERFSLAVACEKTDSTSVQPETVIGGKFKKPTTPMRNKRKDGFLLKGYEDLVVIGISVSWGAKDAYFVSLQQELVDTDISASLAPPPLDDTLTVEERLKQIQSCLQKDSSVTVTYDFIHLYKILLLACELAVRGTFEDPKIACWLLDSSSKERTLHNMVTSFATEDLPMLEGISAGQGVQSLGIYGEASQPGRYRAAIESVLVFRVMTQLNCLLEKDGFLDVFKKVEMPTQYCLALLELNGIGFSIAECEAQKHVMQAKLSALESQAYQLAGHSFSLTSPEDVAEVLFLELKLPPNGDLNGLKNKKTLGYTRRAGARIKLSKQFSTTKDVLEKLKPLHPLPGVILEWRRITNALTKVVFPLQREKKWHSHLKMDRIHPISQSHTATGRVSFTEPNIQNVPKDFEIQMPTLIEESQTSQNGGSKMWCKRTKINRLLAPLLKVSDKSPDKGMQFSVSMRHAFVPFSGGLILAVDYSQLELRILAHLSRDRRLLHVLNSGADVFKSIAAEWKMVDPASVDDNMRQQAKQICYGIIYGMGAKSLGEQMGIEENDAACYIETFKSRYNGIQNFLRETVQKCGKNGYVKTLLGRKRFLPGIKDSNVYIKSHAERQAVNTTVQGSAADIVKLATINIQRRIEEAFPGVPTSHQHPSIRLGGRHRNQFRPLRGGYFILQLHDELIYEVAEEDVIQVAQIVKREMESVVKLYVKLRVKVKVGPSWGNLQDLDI
Description: EMSA; 10 nM DNA, 0-1000 nM protein; binding buffer (composition not given in the material), 1 h at room temperature, 6% native PAGE. The settings on record: protein: recombinant; tags: 6xHis-SUMO, cleaved off (untagged); label: 5'-6-FAM on strand 1 (25-mer primer); primer-template, 22 bp; 5' overhang 18 nt on template, 3 nt unpaired 5' TTT on primer. A general note: A gel shift assay detects complexes by their altered migration in electrophoresis.

Take `Nc1ncnc2c1ncn2[C@H]1C[C@H](O)[C@@H](COP(=O)(O)OP(=O)(O)OP(=O)(O)O)O1` [dATP]: the “primer extension, denaturing gel” value on hPol θ PD (CPD (T-T dimer) 24/33 DNA, 10 mM MgCl2 or MnCl2, pH 8.0, 37 °C, single turnover) is on record as “Both enzymes were able to readily insert opposite a T-T dimer”.

Turning to `Nc1ccn([C@H]2C[C@H](O)[C@@H](COP(=O)(O)OP(=O)(O)OP(=O)(O)O)O2)c(=O)n1` [dCTP], the “primer extension, denaturing gel” value at hPol θ PD (25/40 dsDNA, templating G, MgCl2 or MnCl2, pH 8.0, 37 °C, steady state) is “Both enzymes were able to incorporate single nucleotides, correct and incorrect as well”.

B1: 25/40 dsDNA undamaged (dsDNA)
DNA 1: TTTGCCTTGACCATGTAACAGAGAG
DNA 2: TCTCTTCTCTCACTCACGCTCTCTGTTACATGGTCAAGGC
As a reminder, the Kd is the constant that tells how readily two partners part at equilibrium. For the molecule B1, in series [1], the dissociation constant (Kd) was found to be 19.8 ± 3.1 nM.
